Measurements published in patent publication US20260365611A1, “CRYSTALLINE SALTS OF 2-PHENYL-2-AMINOCYCLOHEXAN-1-ONE DERIVATIVES” (priority 2023, published 2026).

Assay: Polymorph screening (slurry, anti-solvent addition, thermal cycling, slow evaporation, vapor diffusion, polymer-induced crystallization)
Assay type: physicochemical
Design: key: CL: Clear Liquid; HCl-1: Form 1 polymorph; HCl-2: Mixture of Polymorphs of Form 1 and Form 2
Protocol: Based on the approximate solubility of the product of Example 1 (1R HCl Form 1), screening experiments were conducted to find potential additional crystalline forms (polymorphs) using different screening techniques including, but not limited to, slow evaporation, slow cooling, anti-solvent addition, slurry at RT and 50 °C, temperature cycling, diffusion (solid and liquid), and polymer induced crystallization. The various procedures are outlined hereinbelow.
~40 mg of the product of Example 1 was slurried in 0.5-1.0 mL of different solvents in a 4.0 mL glass vial using a magnetic stirrer at RT. The solids in the slurry were stirred for 7 days.
~40 mg of the product of Example 1 was slurried in 0.5-1.0 mL of different solvents in a 4.0 mL glass vial using a magnetic stirrer at 50 °C. […]. The solids in the slurry were stirred for 3 days.
~40 mg of the product of Example 1 was dissolved in a solvent to create a saturated solution and an anti-solvent was added up to 10 volume ratios. The solids, if any, were collected.
~40 mg of the product of Example 1 was dissolved in a solvent, heated, and cooled following temperature cycles of 45 °C/1h→35 °C/4h→25 °C/4h→15 °C/4h→5 °C/4 h for 7 days. The obtained solids (if any) were collected after 7 days.
~40 mg of the product of Example 1 was dissolved in a solvent in a vial to create a saturated solution. The vial opening was covered with parafilm or aluminum foil (2-holes). The vials were kept at RT under the hood. The obtained solids (if any) were collected after 7 days.
~40 mg of the product of Example 1 was dissolved in a solvent to create a saturated solution in a 4.0 mL glass vial. The vial was placed in a 20 mL glass vial containing an anti-solvent. The obtained solids were collected after 7-10 days.
~40 mg of the product of Example 1 was kept in a 4.0 mL glass vial; this vial was placed in a 20 mL glass vial containing a solvent. The solids were collected after 7-10 days.
~40 mg of the product of Example 1 and 2.0 mg of the listed polymer were added to a solvent and kept stirring at RT. The solids in slurry or precipitated solids from solution were collected after 7 days.

CN[C@@]1(c2ccc(F)cc2)CCCCC1=O.Cl [1R HCl, (R)-2-(4-fluorophenyl)-2-(methylamino)cyclohexan-1-one hydrochloride]
Crystal Form (anti-solvent addition, DCM / 1,4-dioxane): CL | Crystal Form (anti-solvent addition, DCM / Acetone): HCl-1 | Crystal Form (anti-solvent addition, DCM / CPME): HCl-1 | Crystal Form (anti-solvent addition, DCM / EtOAc): HCl-1 | Crystal Form (anti-solvent addition, DCM / Hexane): HCl-1 | Crystal Form (anti-solvent addition, IPA / 1,4-dioxane): CL | Crystal Form (anti-solvent addition, IPA / Acetone): CL | Crystal Form (anti-solvent addition, IPA / Heptane): HCl-1 | Crystal Form (anti-solvent addition, IPA / IPAc): HCl-2 | Crystal Form (anti-solvent addition, IPA / MTBE): HCl-2 | Crystal Form (anti-solvent addition, MeOH / Acetone): CL | Crystal Form (anti-solvent addition, MeOH / EtOAc): HCl-1 | Crystal Form (anti-solvent addition, MeOH / MTBE): HCl-1 | Crystal Form (anti-solvent addition, MeOH / THF): HCl-1 | Crystal Form (anti-solvent addition, MeOH / Toluene): HCl-2 | Crystal Form (anti-solvent addition, Water / 1,4-dioxane): CL | Crystal Form (anti-solvent addition, Water / ACN): CL | Crystal Form (anti-solvent addition, Water / THF): CL | Crystal Form (liquid vapor diffusion RT, DMSO / Acetone): CL | Crystal Form (liquid vapor diffusion RT, DMSO / EtOAc): CL | Crystal Form (liquid vapor diffusion RT, DMSO / Toluene): CL | Crystal Form (liquid vapor diffusion RT, MeOH / 2-MeTHF): CL | Crystal Form (liquid vapor diffusion RT, MeOH / IPAc): CL | Crystal Form (liquid vapor diffusion RT, MeOH / MTBE): CL | Crystal Form (liquid vapor diffusion RT, NMP / 1,4-dioxane): CL | Crystal Form (liquid vapor diffusion RT, NMP / Acetone): CL | Crystal Form (liquid vapor diffusion RT, NMP / MTBE): HCl-1 | Crystal Form (polymer induced RT, ACN/H2O (9:1), PEO (Poloxamer 407)): gel | Crystal Form (polymer induced RT, Acetone/DCM (9:1), PVP): HCl-2 | Crystal Form (polymer induced RT, Acetone/H2O (9:1), PVA): HCl-2 | Crystal Form (polymer induced RT, EtOH/Heptane (3/7), HPMC): HCl-1 | Crystal Form (polymer induced RT, MTBE/IPA (9:1), PVA): HCl-1 | Crystal Form (polymer induced RT, MeOH/H2O (9:1), PVP): gel | Crystal Form (slow evaporation RT, 7 days, ACN): HCl-1 | Crystal Form (slow evaporation RT, 7 days, Acetone): HCl-1 | Crystal Form (slow evaporation RT, 7 days, DCM): HCl-2 | Crystal Form (slow evaporation RT, 7 days, DMF): CL | Crystal Form (slow evaporation RT, 7 days, DMSO): CL | Crystal Form (slow evaporation RT, 7 days, MeOH): gel | Crystal Form (slow evaporation RT, 7 days, NMP): CL | Crystal Form (slow evaporation RT, 7 days, Water): HCl-1 | Crystal Form (slow evaporation RT, 7 days, nPA): HCl-1 | Crystal Form (slurry 50 °C, 3 days, 1,4-dioxane): HCl-1 | Crystal Form (slurry 50 °C, 3 days, 2-MeTHF): HCl-1 | Crystal Form (slurry 50 °C, 3 days, ACN): HCl-1 | Crystal Form (slurry 50 °C, 3 days, Acetone/Toluene (1:1)): HCl-1 | Crystal Form (slurry 50 °C, 3 days, EtOAc): HCl-1 | Crystal Form (slurry 50 °C, 3 days, EtOH): HCl-1 | Crystal Form (slurry 50 °C, 3 days, IPA): HCl-1 | Crystal Form (slurry 50 °C, 3 days, IPAc): HCl-1 | Crystal Form (slurry 50 °C, 3 days, MEK): HCl-1 | Crystal Form (slurry 50 °C, 3 days, MIBK): HCl-1 | Crystal Form (slurry 50 °C, 3 days, MTBE): HCl-1 | Crystal Form (slurry 50 °C, 3 days, MeOH): HCl-1 | Crystal Form (slurry 50 °C, 3 days, THF/H2O (9:1)): gel | Crystal Form (slurry 50 °C, 3 days, THF/n-Heptane (1:1)): HCl-1 | Crystal Form (slurry 50 °C, 3 days, Toluene): HCl-1 | Crystal Form (slurry 50 °C, 3 days, Water): HCl-1 | Crystal Form (slurry RT, 7 days, 1,4-dioxane): HCl-2 | Crystal Form (slurry RT, 7 days, ACN): HCl-2 | Crystal Form (slurry RT, 7 days, Acetone/H2O (aw = 0.2)): HCl-2 | Crystal Form (slurry RT, 7 days, Acetone/H2O (aw = 0.4)): HCl-2 | Crystal Form (slurry RT, 7 days, Acetone/H2O (aw = 0.6)): gel | Crystal Form (slurry RT, 7 days, Acetone/H2O (aw = 0.8)): gel | Crystal Form (slurry RT, 7 days, Acetone/Toluene (1:1)): HCl-1 | Crystal Form (slurry RT, 7 days, Anisole): HCl-1 | Crystal Form (slurry RT, 7 days, CPME): HCl-1 | Crystal Form (slurry RT, 7 days, EtOAc): HCl-1 | Crystal Form (slurry RT, 7 days, H2O): CL | Crystal Form (slurry RT, 7 days, IPA): HCl-1 | Crystal Form (slurry RT, 7 days, IPAc): HCl-1 | Crystal Form (slurry RT, 7 days, MEK): HCl-1 | Crystal Form (slurry RT, 7 days, MIBK): HCl-1 | Crystal Form (slurry RT, 7 days, MTBE): HCl-1 | Crystal Form (slurry RT, 7 days, MeOH): HCl-1 | Crystal Form (slurry RT, 7 days, PEG): amorphous | Crystal Form (slurry RT, 7 days, THF): HCl-2 | Crystal Form (slurry RT, 7 days, THF/n-Heptane (1:1)): HCl-1 | Crystal Form (slurry RT, 7 days, Toluene): HCl-1 | Crystal Form (solid vapor diffusion RT, 1,4-dioxane): HCl-1 | Crystal Form (solid vapor diffusion RT, 2-MeTHF): HCl-1 | Crystal Form (solid vapor diffusion RT, ACN): HCl-1 | Crystal Form (solid vapor diffusion RT, Acetone): HCl-1 | Crystal Form (solid vapor diffusion RT, DCM): CL | Crystal Form (solid vapor diffusion RT, EtOAc): HCl-1 | Crystal Form (solid vapor diffusion RT, EtOH): CL | Crystal Form (solid vapor diffusion RT, Hexane): HCl-1 | Crystal Form (solid vapor diffusion RT, MEK): HCl-1 | Crystal Form (solid vapor diffusion RT, MTBE): HCl-1 | Crystal Form (solid vapor diffusion RT, MeOH): CL | Crystal Form (solid vapor diffusion RT, Toluene): HCl-1 | Crystal Form (thermal cycling, 7 days, ACN): HCl-1 | Crystal Form (thermal cycling, 7 days, DMSO): HCl-1 | Crystal Form (thermal cycling, 7 days, EtOH/acetone (3:7)): gel | Crystal Form (thermal cycling, 7 days, EtOH/n-Heptane (3:7)): HCl-1 | Crystal Form (thermal cycling, 7 days, IPA): HCl-2 | Crystal Form (thermal cycling, 7 days, IPA/Toluene (3:7)): HCl-2 | Crystal Form (thermal cycling, 7 days, MeOH/IPAc (1:9)): HCl-1
